Experimental findings from paper PMC8730469 (Bioorganic & Medicinal Chemistry Letters, 2022) are described below.

The target in the first assay is T1, SARS-CoV-2 M^pro (Severe acute respiratory syndrome coronavirus 2, UniProt P0DTD1). As to the kind of experiment: fast dilution experiment. The settings on record: Fig. S1 and Table S1.
On to `O=C(Cn1sc2cccc(F)c2c1=O)Nc1ccccc1` [Compound 16b-3], for which the reversibility of inhibition entry is recorded as “irreversible inhibitor”.

The target in a further assay is T1, SARS-CoV-2 M^pro.
Experiment: not given
The assay is classed as biochemical.
Settings: not given
Take `O=c1[nH]sc2cc(F)ccc12` [Compound 3a]: the “inhibitory activity (in words)” value is “reduced dramatically”. The same measure, in the same setting: in the case of `Nc1cccc2c(=O)n(CC(=O)Nc3ccccc3)sc12` [Compound 16b-17] it was “decreased the activity drastically”; in that of `O=C(O)Cn1sc2cc(F)ccc2c1=O` [Compound 13a], “reduced dramatically”; in that of `COc1cccc2c(=O)n(CC(=O)Nc3ccccc3)sc12` [Compound 16b-9], “decreased the activity drastically”.

In the case of `O=C(Cn1sc2c(C(F)(F)F)cccc2c1=O)Nc1ccccc1` [Compound 16b-13], the “inhibitory activity (in words)” value is “decreased the activity drastically”.
